Source: ChEMBL document CHEMBL1144066, “Aurantosides D, E, and F: new antifungal tetramic acid glycosides from the marine sponge Siliquariaspongia japonica” (J Nat Prod, 1999)
≈ marks a conversion by molar mass, not a printed value. Calls of active or inactive are those of the source. The rule behind the calls is not given here.

How the values were obtained:
[1] = tested on: Candida albicans; test: Antifungal activity against Candida albicans at 2 ug/disk; assay type: functional; conditions: for zone of inhibition at 2 µg/disc: read-out: IZ
[2] = tested on: Candida albicans; test: Antifungal activity against Candida albicans; assay type: functional
[3] = tested on: P388; test: Cytotoxicity against mouse P388 cells; assay type: functional, cell-based
[4] = tested on: Aspergillus fumigatus; test: Antifungal activity against Aspergillus fumigatus at 2 ug/disk; assay type: functional; conditions: read-out: IZ
[5] = tested on: Aspergillus fumigatus; test: Antifungal activity against Aspergillus fumigatus; assay type: functional

| Compound | MIC [2] [µg/mL] | MIC [5] [µg/mL] | Activity [1] | Activity [2] | IC50 [3] [µg/mL] | zone of inhibition at 2 µg/disc [1] [mm] | zone of inhibition at 2 µg/disc [4] [mm] |
| --- | --- | --- | --- | --- | --- | --- | --- |
| CO[C@@H]1[C@H](O[C@@H]2CO[C@@H](O[C@@H]3[C@@H](O)[C@H](O)CO[C@H]3N3C(=O)/C(=C(O)/C=C/C=C/C=C/C=C/C=C(Cl)/C=C/C=C/C=C(/C)Cl)C(=O)[C@@H]3CC(N)=O)[C@@H](O)[C@@H]2O)O[C@H](C)[C@H]1O |  |  | inactive | inactive |  |  |  |
| C/C(Cl)=C/C=C/C(Cl)=C/C=C/C=C/C=C/C=C/C(O)=C1\C(=O)[C@H](CC(N)=O)N([C@@H]2OC[C@@H](O)[C@H](O)[C@H]2O[C@@H]2OC[C@@H](O[C@@H]3O[C@H](C)[C@@H](O)[C@@H]3O)[C@@H](O)[C@@H]2O)C1=O [AURANTOSIDE D] |  |  |  |  | 0.2 (≈ 0.241 µM) | 9.5 | 11 |

Now from value to compound, other results behind:

| MIC [2] [µg/mL] | MIC [5] [µg/mL] | Compound | Activity [1] | Activity [2] | IC50 [3] [µg/mL] | zone of inhibition at 2 µg/disc [1] [mm] | zone of inhibition at 2 µg/disc [4] [mm] |
| --- | --- | --- | --- | --- | --- | --- | --- |
| 1.25 (≈ 1.53 µM) | 0.16 (≈ 0.196 µM) | CO[C@@H]1[C@H](O[C@@H]2CO[C@@H](O[C@@H]3[C@@H](O)[C@H](O)CO[C@H]3N3C(=O)/C(=C(O)/C=C/C=C/C=C/C=C/C=C(Cl)/C=C(\C)Cl)C(=O)[C@@H]3CC(N)=O)[C@@H](O)[C@@H]2O)O[C@H](C)[C@H]1O [AURANTOSIDE A] |  |  | > 5 | 11.3 | 18 |
| 0.63 (≈ 0.784 µM) | 0.16 (≈ 0.199 µM) | C\C(Cl)=C/C(Cl)=C/C=C/C=C/C=C/C=C/C(O)=C1\C(=O)[C@H](CC(N)=O)N([C@@H]2OC[C@@H](O)[C@H](O)[C@H]2O[C@@H]2OC[C@@H](O[C@@H]3O[C@H](C)[C@@H](O)[C@@H]3O)[C@@H](O)[C@@H]2O)C1=O [AURANTOSIDE B] |  |  | > 5 | 11.8 | 17.2 |
| 0.16 (≈ 0.19 µM) | 0.04 (≈ 0.0474 µM) | CO[C@@H]1[C@H](O[C@@H]2CO[C@@H](O[C@@H]3[C@@H](O)[C@H](O)CO[C@H]3N3C(=O)/C(=C(O)/C=C/C=C/C=C/C=C/C=C(Cl)/C=C/C=C(/C)Cl)C(=O)[C@@H]3CC(N)=O)[C@@H](O)[C@@H]2O)O[C@H](C)[C@H]1O [AURANTOSIDE E] |  |  | 0.2 (≈ 0.237 µM) | 9.7 | 13.6 |
